Source: PMC9374667 (Communications Biology, 2022)
Several values for one entry are separate records, joined by “and”; a condition that tells them apart may be missing. Equal values may be shown once.

Tests used:
[1] = In vitro dissolution studies: dynamic solubility in buffers and simulated biological fluids; type: physicochemical; conditions: CMC-Na, mean
Experimental: (§1) Solubilities were determined by adding excess sample to 30 mL different mediums, such as HCl solution, acetate buffer, phosphate buffer, SGF, FaSSIF and FeSSIF. The configuration of various buffer solutions is shown in Supplementary Table 2. After being shaken at 400 rpm at 37 °C for 0.5, 1, 2, and 24 h, 0.3 mL of suspension was sampled and centrifuged at 14,000 rpm for 8 min to isolate mother liquor, and then analyzed by HPLC after dilution. All samples were analyzed in triplicate.

[2] = system: db/db mice; test: Insulin tolerance test (ITT), AUC and initial slope; type: in vivo; conditions: for blood glucose level: individual mice, in mmol/L (unit assumed); for Initial Slope: individual animals (Figure S10a)
Experimental: (§2) Mice were fasted for 4 h for insulin resistance test and intraperitoneally injected with 1 unit/kg of insulin. Blood glucose levels were measured from the tail vein blood at 0, 15, 30, 45, 60, 90, and 120 min after injection. Plasma insulin levels were measured using an ultrasensitive mouse insulin ELISA kit (Nanjing Jiancheng Bioengineering Institute, Nanjing, China).

[3] = system: db/db mice; test: Glucose tolerance test (GTT); type: in vivo; conditions: for blood glucose level, mean: mean of 10 mice
[4] = system: db/db mice; test: Fasting serum insulin levels (ELISA); type: in vivo; conditions: db/db mice; for insulin level (Figure 5b): fasting serum, individual mice 1-6; for Fasting serum insulin levels: 35 days of treatment, vs vehicle
Experimental: as §2

[5] = system: db/db mice; test: HE staining of epididymal adipose tissue, adipocyte size; type: in vivo; conditions: for Cell diameter (adipocyte size of eWAT): individual cells
Experimental: The adipose tissue was fixed overnight in 4% paraformaldehyde, then embedded in paraffin and cut into 5 µm thick slices. Tissue sections were stained with hematoxylin and eosin (H&E). For immunohistochemistry, sections were incubated with primary antibodies against F4/80 (1:100 dilution) diluted in the blocking solution at 4 °C overnight. The tissue sections were then incubated with the horseradish peroxidase (HRP)-conjugated secondary antibody at room temperature for 2 h. Finally, the sections were developed with diaminobenzidine (DAB) and counterstained with hematoxylin. Images were obtained under a microscope. To quantify the F4/80-positive macrophages, two random fields per sample were analyzed by Image J software. The IHC profiler plugin of ImageJ was used to calculate the F4/80 positive area.

[6] = pH of the solution after 24 hours of the dissolution test; type: physicochemical
Experimental: as §1, with “triplicate. […]” for “triplicate.”
into a 1000 mL flask followed by addition of about 800 mL of deionized water. The mixture is stirred until all solids are dissolved.
Add about 100 mL of 0.1 N HCl, check pH value with a pH meter and adjust the pH to 2.0 with HCl (1 N) or NaOH (1 N). Then dilute to the volume with deionized water.
* 1N sodium hydroxide: Weigh 8 g NaOH in a 200 mL plastic volumetric flask, add deionized water to volume and mix well. […]
phosphate and 3.093 g sodium chloride in a 500 mL volumetric flask, add about 0.450 L deionized water, and adjust the pH to 6.5 with 1N sodium hydroxide or 1 N hydrochloric acid. Make up to volume (0.5 […]
Step 2: Place and dissolve 1.120 g FaSSIF/FeSSIF/FaSSGF instant powder with 0.250 L of buffer (from step 1) in a 500 mL volumetric flask, then add buffer (from step 1) to volume, and mix well. […]
g sodium chloride in a 500 mL volumetric flask, add about 0.450 L deionized water, and adjust the pH to 5.0 with 1 N sodium hydroxide or 1 N hydrochloric acid. Make up to volume (500 mL) with
Step 2: Place and dissolve 5.600 g FaSSIF/FeSSIF/FaSSGF instant […]
0.750 L deionized water. Make up to volume (1000 mL) with deionized water and placed overnight.
(1 picture or pasted object on this page, not shown here)

[7] = BJ 75mg/kg, time column 1 of 7 (time not printed)
[8] = BJ 75mg/kg, time column 2 of 7 (time not given)
[9] = BJ 75mg/kg, time column 3 of 7 (time not given)
[10] = BJ 75mg/kg, time column 4 of 7 (time not given)
[11] = BJ 75mg/kg, time column 5 of 7 (time not given)
[12] = BJ 75mg/kg, time column 6 of 7 (time not given)
[13] = BJ 75mg/kg, time column 7 of 7 (time not printed)
[14] = BJ 150mg/kg, time column 1 of 7 (time not printed)
[15] = BJ 150mg/kg, time column 2 of 7 (time not given)
[16] = BJ 150mg/kg, time column 3 of 7 (time not given)
[17] = BJ 150mg/kg, time column 4 of 7 (time not given)
[18] = BJ 150mg/kg, time column 5 of 7 (time not given)
[19] = BJ 150mg/kg, time column 6 of 7 (time not given)
[20] = BJ 150mg/kg, time column 7 of 7 (time not printed)

In the case of `CC(C)Cc1ccc(C(C)C(=O)[O-])cc1.COc1ccc2cc3[n+](cc2c1OC)CCc1cc2c(cc1-3)OCO2.O.O.O.O` [BJ, berberine-ibuprofen], the “BBR dissolved in CMC-Na (Figure S7a)” value ([1]; time 0.5) is reported as 0.8321, the “Ibu dissolved in CMC-Na (Figure S7b)” value ([1]; time 0.5) is reported as 0.4805 and the “BBR dissolved in CMC-Na (Figure S7a)” value ([1]; time 1) is reported as 1.458. The “Ibu dissolved in CMC-Na (Figure S7b)” value ([1]; time 1) was 0.5844, the “BBR dissolved in CMC-Na (Figure S7a)” value ([1]; time 2) was 1.5642 and the “Ibu dissolved in CMC-Na (Figure S7b)” value ([1]; time 2) was 0.6306. The “BBR dissolved in CMC-Na (Figure S7a)” value ([1]; time 24) was 1.6671, the “Ibu dissolved in CMC-Na (Figure S7b)” value ([1]; time 24) was 0.6693 and the blood glucose level [2, 7] was 18.5 and 19.1 and 12.0 and 14.2 and 11.0 and 11.7 and 16.7 and 19.2 and 21.8 and 15.9. The blood glucose level [2, 8] was 19.2 and 21.2 and 12.1 and 14.6 and 8.3 and 11.4 and 18.6 and 22.2 and 23.5 and 18.5, the blood glucose level [2, 9] was 18.3 and 19.0 and 10.1 and 10.5 and 8.8 and 7.5 and 13.7 and 19.3 and 20.1 and 11.6 and the blood glucose level [2, 10] was 13.0 and 15.2 and 7.6 and 10.0 and 6.8 and 7.5 and 12.1 and 16.3 and 20.8 and 11.0. For the same compound, the blood glucose level [2, 11] was 12.4 and 16.1 and 8.4 and 8.8 and 5.9 and 7.1 and 11.2 and 16.2 and 16.3 and 10.1, the blood glucose level [2, 12] was 10.2 and 13.2 and 6.9 and 8.2 and 5.3 and 6.4 and 9.7 and 13.6 and 14.6 and 9.4 and the blood glucose level [2, 13] was 12.1 and 12.2 and 9.0 and 9.8 and 4.9 and 5.5 and 10.8 and 12.3 and 14.9 and 10.0. The blood glucose level [2, 14] was 18.0 and 17.8 and 9.3 and 14.4 and 11.4, the blood glucose level [2, 15] was 13.2 and 15.0 and 7.7 and 11.7 and 11.6 and the blood glucose level [2, 16] was 7.7 and 7.0 and 1.7 and 6.1. For the same compound, the blood glucose level [2, 17] was 7.2 and 6.7 and 1.5 and 6.3, the blood glucose level [2, 18] was 9.0 and 8.2 and 3.3 and 5.2 and the blood glucose level [2, 19] was 8.2 and 7.6 and 2.8 and 7.0. For the same compound, the blood glucose level [2, 20] was 10.4 and 7.7 and 4.0 and 7.3, the “Insulin sensitivity (ITT)” value ([2]; db/db mice, 150 mg/kg, week 5) was “more sensitive to insulin stimulation” and the “Initial Slope” value ([2]; db/db mice, BJ 75mg/kg) was -0.0733 mmol/L/min and -0.14 mmol/L/min and -0.1 mmol/L/min and 0.0033 mmol/L/min and -0.0567 mmol/L/min and -0.1433 mmol/L/min and -0.0067 mmol/L/min and -0.0033 mmol/L/min and -0.0633 mmol/L/min and -0.1233 mmol/L/min. For the same compound, the “Initial Slope” value ([2]; db/db mice, BJ 150mg/kg) was -0.1767 mmol/L/min and -0.22 mmol/L/min and -0.15 mmol/L/min and -0.28 mmol/L/min and -0.3433 mmol/L/min and -0.36 mmol/L/min and -0.2533 mmol/L/min and -0.2467 mmol/L/min, the blood glucose level, mean [3, 7] was 20.5 mmol/L and the blood glucose level, mean [3, 8] was 26.6 mmol/L. The blood glucose level, mean [3, 9] was 31.4 mmol/L, the blood glucose level, mean [3, 10] was 32 mmol/L and the blood glucose level, mean [3, 11] was 31.2 mmol/L. For the same compound, the blood glucose level, mean [3, 12] was 28.2 mmol/L, the blood glucose level, mean [3, 13] was 23.2 mmol/L and the blood glucose level, mean [3, 14] was 12.3 mmol/L. It also gave a blood glucose level, mean [3, 15] of 26.4 mmol/L, a blood glucose level, mean [3, 16] of 27.7 mmol/L and a blood glucose level, mean [3, 17] of 24.1 mmol/L. It also gave a blood glucose level, mean [3, 18] of 21.2 mmol/L, a blood glucose level, mean [3, 19] of 18.4 mmol/L and a blood glucose level, mean [3, 20] of 15.8 mmol/L. The “Glucose tolerance (GTT)” value ([3]; db/db mice, 150 mg/kg, week 4) was “displayed better tolerance to glucose load”, the “insulin level (Figure 5b)” value ([4]; BJ 75mg/kg) was 10.1686 and 14.5706 and 11.3611 and 13.6498 and 12.9045 and 14.3689 and the “insulin level (Figure 5b)” value ([4]; BJ 150mg/kg) was 10.5413 and 10.778 and 14.6188 and 12.4266 and 11.7294 and 13.6718. For the same compound, the “Fasting serum insulin levels” value ([4]; 75 mg/kg) was “did not produce significant effects”, the “Fasting serum insulin levels” value ([4]; 150 mg/kg) was “significantly reduced the fasting serum insulin levels” and the “Cell diameter (adipocyte size of eWAT)” value ([5]; 75 mg/kg) was 121.031 µm and 117.863 µm and 116.509 µm and 116.462 µm and 115.083 µm and 111.737 µm and 111.179 µm and 109.716 µm and 106.71 µm and 106.209 µm and 103.54 µm and 98.2043 µm and 95.428 µm and 94.4084 µm and 90.8792 µm and 133.968 µm and 130.976 µm and 129.724 µm and 125.916 µm and 124.05 µm. For the same compound, the “Cell diameter (adipocyte size of eWAT)” value ([5]; 150 mg/kg) was 102.304 µm and 92.1827 µm and 91.4137 µm and 90.3818 µm and 88.4919 µm and 87.3914 µm and 86.5338 µm and 86.4994 µm and 85.9825 µm and 85.1497 µm and 81.6079 µm and 81.6018 µm and 80.5245 µm and 80.4936 µm and 112.756 µm and 110.047 µm and 105.5 µm and 104 µm and 102.927 µm, the “Size of adipocytes in eWAT compared with vehicle” value ([5]; BJ 75 and 150 mg/kg, BBR 150 mg/kg, Ibu 150 mg/kg) was “significantly reduced” and the “pH of the solution after 24 hours” value ([6]; Acetate buffer, blank vehicle 4.54) was 4.82. The “pH of the solution after 24 hours” value ([6]; CMC-Na, blank vehicle 6.51) was 6.70, the “pH of the solution after 24 hours” value ([6]; FaSSIF-v1, blank vehicle 6.51) was 5.50 and the “pH of the solution after 24 hours” value ([6]; FeSSIF-v1, blank vehicle 5.04) was 5.17. The “pH of the solution after 24 hours” value ([6]; HCl solution, blank vehicle 1.08) was 1.03, the “pH of the solution after 24 hours” value ([6]; Phosphate buffer, blank vehicle 6.84) was 6.90 and the “pH of the solution after 24 hours” value ([6]; SGF, blank vehicle 2.03) was 5.38.
